Results as given in patent US11730720B2, “ALK5 inhibitors” (THERAVANCE BIOPHARMA R&D IP, LLC, priority 2018, dated 2023).

Assays:
[1] = target: T1, recombinant human ALK5 (TGF-βR1) protein (Homo sapiens, UniProt P36897); assay: Biochemical ALK5 (TGF-βR1) assay to measure pKi (LANCE Ultra ULight kinase assay); conditions: apparent pKi, converted from pIC50 using the Cheng-Prusoff equation
T1 construct: purchased Life Technologies PR9075A
T1 sequence (P36897 34-503): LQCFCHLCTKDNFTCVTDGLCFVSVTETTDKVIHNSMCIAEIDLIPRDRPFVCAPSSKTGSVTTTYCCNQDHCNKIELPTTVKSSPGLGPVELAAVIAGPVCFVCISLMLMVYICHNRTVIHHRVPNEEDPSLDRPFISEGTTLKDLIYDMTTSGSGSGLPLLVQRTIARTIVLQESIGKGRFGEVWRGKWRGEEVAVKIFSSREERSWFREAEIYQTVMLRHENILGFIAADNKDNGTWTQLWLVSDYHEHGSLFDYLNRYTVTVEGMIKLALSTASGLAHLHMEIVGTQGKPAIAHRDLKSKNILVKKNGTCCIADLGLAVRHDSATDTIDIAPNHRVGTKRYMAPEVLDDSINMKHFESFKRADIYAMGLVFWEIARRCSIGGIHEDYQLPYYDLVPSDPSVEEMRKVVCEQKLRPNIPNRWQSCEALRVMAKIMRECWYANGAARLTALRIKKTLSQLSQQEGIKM
How it was run: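 TR-FRET kinase format: compound dose range 10 μM–25 pM equilibrated 60 min with human ALK5 and ULight-labelled topoisomerase 2α peptide in HEPES/MgCl2 buffer pH 7.5 with DTT. Reaction started with ATP (125 μM stock, 5× final), 60 min at 37° C, stopped with EDTA/Eu-anti-phospho antibody; pKi derived from pIC50 via Cheng-Prusoff.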

[2] = tested on: TGF-β-stimulated SMAD3 phosphorylation in BEAS-2B cells; assay: Cellular ALK5 potency assay, inhibition of TGF-β stimulated pSMAD3 formation in BEAS-2B cells; assay type: cell-based; conditions: Homo sapiens, inhibition of TGF-β (10 ng/mL) stimulated pSMAD3 formation, 1 hour compound incubation, read-out: BEAS2B pIC50 (converted)
How it was run: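 Phospho-SMAD3 was quantified by AlphaLISA in lysates of human lung epithelial BEAS-2B cells. Compound was added 1 h (37 °C, HEPES/BSA-supplemented HBSS) before a 30 min challenge with 10 ng/mL TGF-β. Values are pIC50 relative to stimulated cells without compound.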

Ki [1]	SMILES	IC50 [2]
0.0398 to 0.316 nM	O=C(O)CC1CNCCN1CCNc1cnc2ccc(-c3nc[nH]c3-c3cc(Cl)ccc3F)nc2c1 (stereo not drawn) [Compound 2-34, 2-[1-[2-[[6-[5-(5-chloro-2-fluoro-phenyl)-1H-imidazol-4-yl]-1,5-naphthyridin-3-yl]amino]ethyl]piperazin-2-yl]acetic acid]	200 to 1260 nM
0.0398 to 0.316 nM	COC(=O)CC1CNCCN1CCNc1cnc2ccc(-c3nc[nH]c3-c3cc(Cl)ccc3F)nc2c1 (stereo not drawn) [Compound 2-35, methyl 2-[1-[2-[[6-[5-(5-chloro-2-fluoro-phenyl)-1H-imidazol-4-yl]-1,5-naphthyridin-3-yl]amino]ethyl]piperazin-2-yl]acetate]	25.1 to 158 nM
0.0398 to 0.316 nM	COC(=O)CC1CN(CCNc2cnc3ccc(-c4nc[nH]c4-c4cc(Cl)ccc4F)nc3c2)CCN1 (stereo not drawn) [Compound 2-36, methyl 2-[4-[2-[[6-[5-(5-chloro-2-fluoro-phenyl)-1H-imidazol-4-yl]-1,5-naphthyridin-3-yl]amino]ethyl]piperazin-2-yl]acetate]	25.1 to 158 nM
0.0398 to 0.316 nM	Cc1oc(=O)oc1CN1CCN(c2cnc3ccc(-c4nc[nH]c4-c4cc(Cl)ccc4F)nc3c2)CC1 [Compound 2-37, 4-[[4-[6-[5-(5-chloro-2-fluoro-phenyl)-1H-imidazol-4-yl]-1,5-naphthyridin-3-yl]piperazin-1-yl]methyl]-5-methyl-1,3-dioxol-2-one]	200 to 1260 nM
3.98 to 31.6 nM	CCOC(=O)[C@H]1CN(c2cnc3ccc(-c4nc[nH]c4-c4cc(Cl)ccc4F)nc3c2)CCN1 [Compound 2-38, ethyl (2R)-4-[6-[5-(5-chloro-2-fluoro-phenyl)-1H-imidazol-4-yl]-1,5-naphthyridin-3-yl]piperazine-2-carboxylate]	25.1 to 158 nM
0.0398 to 0.316 nM	CC(C)N1CCN(CCNc2cnc3ccc(-c4c(-c5cc(Cl)ccc5F)nc5ccccn45)nc3c2)CC1 [Compound 3-1, 6-(2-(5-chloro-2-fluorophenyl)imidazo[1,2-a]pyridin-3-yl)-N-(2-(4-isopropylpiperazin-1-yl)ethyl)-1,5-naphthyridin-3-amine]	25.1 to 158 nM
0.0398 to 0.316 nM	Fc1ccc(Cl)cc1-c1nc2ccccn2c1-c1ccc2ncc(N3CCNCC3)cc2n1 [Compound 3-2, 2-(2-(5-chloro-2-fluorophenyl)imidazo[1,2-a]pyridin-3-yl)-7-(piperazin-1-yl)-1,5-naphthyridine]	200 to 1260 nM
0.0398 to 0.316 nM	Fc1ccc(Cl)cc1-c1nc2ccccn2c1-c1ccc2ncc(N3CCCNCC3)cc2n1 [Compound 3-3, 2-[2-(5-chloro-2-fluoro-phenyl)imidazo[1,2-a]pyridin-3-yl]-7-(1,4-diazepan-1-yl)-1,5-naphthyridine]	25.1 to 158 nM
0.0398 to 0.316 nM	CN1CCN(C2CCN(c3cnc4ccc(-c5c(-c6cc(Cl)ccc6F)nc6ccccn56)nc4c3)CC2)CC1 [Compound 3-5, 2-[2-(5-chloro-2-fluoro-phenyl)imidazo[1,2-a]pyridin-3-yl]-7-[4-(4-methylpiperazin-1-yl)-1-piperidyl]-1,5-naphthyridine]	200 to 1260 nM
0.0398 to 0.316 nM	Fc1ccc(Cl)cc1-c1nc2ccccn2c1-c1ccc2ncc(-c3nnn4c3CNCC4)cc2n1 [Compound 3-6, 2-(2-(5-chloro-2-fluorophenyl)imidazo[1,2-a]pyridin-3-yl)-7-(4,5,6,7-tetrahydro-[1,2,3]triazolo[1,5-a]pyrazin-3-yl)-1,5-naphthyridine]	25.1 to 158 nM
0.0398 to 0.316 nM	Fc1ccc(Cl)cc1-c1nc2ccccn2c1-c1ccc2ncc(-c3cnn4c3CNCC4)cc2n1 [Compound 3-7, 2-[2-(5-chloro-2-fluoro-phenyl)imidazo[1,2-a]pyridin-3-yl]-7-(4,5,6,7-tetrahydropyrazolo[1,5-a]pyrazin-3-yl)-1,5-naphthyridine]	25.1 to 158 nM
0.0398 to 0.316 nM	Fc1ccc(Cl)cc1-c1nc2ccccn2c1-c1ccc2ncc(-c3cnc4n3CCNC4)cc2n1 [Compound 3-8, 2-[2-(5-chloro-2-fluoro-phenyl)imidazo[1,2-a]pyridin-3-yl]-7-(5,6,7,8-tetrahydroimidazo[1,2-a]pyrazin-3-yl)-1,5-naphthyridine]	25.1 to 158 nM
0.0398 to 0.316 nM	Fc1ccc(Cl)cc1-c1nc2ccccn2c1-c1ccc2ncc(-c3nc4n(n3)CCNC4)cc2n1 [Compound 3-9, 2-[2-(5-chloro-2-fluoro-phenyl)imidazo[1,2-a]pyridin-3-yl]-7-(5,6,7,8-tetrahydro-[1,2,4]triazolo[1,5-a]pyrazin-2-yl)-1,5-naphthyridine]	25.1 to 158 nM
0.398 to 3.16 nM	Fc1ccc(Cl)cc1-c1nc2ccccn2c1-c1ccc2ncc(-c3cn[nH]c3)cc2n1 [Compound 3-10, 2-[2-(5-chloro-2-fluoro-phenyl)imidazo[1,2-a]pyridin-3-yl]-7-(1H-pyrazol-4-yl)-1,5-naphthyridine]	1580 to 10000 nM
0.398 to 3.16 nM	Fc1ccc(Cl)cc1-c1nnn(Cc2ccccc2)c1-c1ccc2ncccc2n1 [Compound 4-1, 2-(1-benzyl-4-(5-chloro-2-fluorophenyl)-1H-1,2,3-triazol-5-yl)-1,5-naphthyridine]	200 to 1260 nM
3.98 to 31.6 nM	COC(=O)c1cnc2ccc(-c3c(-c4cc(Cl)ccc4F)nnn3Cc3ccccc3)nc2c1 [Compound 4-2, methyl 6-[3-benzyl-5-(5-chloro-2-fluoro-phenyl)triazol-4-yl]-1,5-naphthyridine-3-carboxylate]	200 to 1260 nM
0.398 to 3.16 nM	COC(=O)c1cnc2ccc(-c3[nH]nnc3-c3cc(Cl)ccc3F)nc2c1 [Compound 5-1, methyl 6-(4-(5-chloro-2-fluorophenyl)-1H-1,2,3-triazol-5-yl)-1,5-naphthyridine-3-carboxylate]	25.1 to 158 nM
3.98 to 31.6 nM	Fc1ccc(Cl)cc1-c1[nH]nnc1-c1ccc2ncc(-c3c[nH]nc3C(F)(F)F)cc2n1 [Compound 5-2, 2-(5-(5-chloro-2-fluorophenyl)-1H-1,2,3-triazol-4-yl)-7-(3-(trifluoromethyl)-1H-pyrazol-4-yl)-1,5-naphthyridine]	25.1 to 158 nM
0.0398 to 0.316 nM	CC(C)N1CCN(CCNc2cnc3ccc(-c4c[nH]nc4-c4cc(Cl)c(F)cc4F)nc3c2)CC1 [Compound 6-1, 6-(3-(5-chloro-2,4-difluorophenyl)-1H-pyrazol-4-yl)-N-(2-(4-isopropylpiperazin-1-yl)ethyl)-1,5-naphthyridin-3-amine]	25.1 to 158 nM
0.0398 to 0.316 nM	CN1CCN(CCNc2cnc3ccc(-c4c[nH]nc4-c4cc(Cl)c(F)cc4F)nc3c2)CC1 [Compound 6-2, 6-[3-(5-chloro-2,4-difluoro-phenyl)-1H-pyrazol-4-yl]-N-[2-(4-methylpiperazin-1-yl)ethyl]-1,5-naphthyridin-3-amine]	≤ 20 nM
0.0398 to 0.316 nM	CCN1CCN(CCNc2cnc3ccc(-c4c[nH]nc4-c4cc(Cl)c(F)cc4F)nc3c2)CC1 [Compound 6-3, 6-[3-(5-chloro-2,4-difluoro-phenyl)-1H-pyrazol-4-yl]-N-[2-(4-ethylpiperazin-1-yl)ethyl]-1,5-naphthyridin-3-amine]	≤ 20 nM
0.0398 to 0.316 nM	Fc1cc(F)c(-c2n[nH]cc2-c2ccc3ncc(NCC4CN5CCN4CC5)cc3n2)cc1Cl (stereo not drawn) [Compound 6-4, 6-[3-(5-chloro-2,4-difluoro-phenyl)-1H-pyrazol-4-yl]-N-(1,4-diazabicyclo[2.2.2]octan-2-ylmethyl)-1,5-naphthyridin-3-amine]	25.1 to 158 nM
0.0398 to 0.316 nM	CC1(C)CCCN1CCNc1cnc2ccc(-c3c[nH]nc3-c3cc(Cl)c(F)cc3F)nc2c1 [Compound 6-5, 6-[3-(5-chloro-2,4-difluoro-phenyl)-1H-pyrazol-4-yl]-N-[2-(2,2-dimethylpyrrolidin-1-yl)ethyl]-1,5-naphthyridin-3-amine]	25.1 to 158 nM
0.0398 to 0.316 nM	Fc1cc(F)c(-c2n[nH]cc2-c2ccc3ncc(-c4cn[nH]c4)cc3n2)cc1Cl [Compound 6-6, 2-[3-(5-chloro-2,4-difluoro-phenyl)-1H-pyrazol-4-yl]-7-(1H-pyrazol-4-yl)-1,5-naphthyridine]	≤ 20 nM
0.398 to 3.16 nM	Fc1cc(F)c(-c2n[nH]cc2-c2ccc3ncc(NCCN4CCCC4)cc3n2)cc1Cl [Compound 6-7, 6-[3-(5-chloro-2,4-difluoro-phenyl)-1H-pyrazol-4-yl]-N-(2-pyrrolidin-1-ylethyl)-1,5-naphthyridin-3-amine]	25.1 to 158 nM
0.398 to 3.16 nM	Fc1cc(F)c(-c2n[nH]cc2-c2ccc3ncc(NCC4CCCCN4)cc3n2)cc1Cl (stereo not drawn) [Compound 6-8, 6-[3-(5-chloro-2,4-difluoro-phenyl)-1H-pyrazol-4-yl]-N-(2-piperidylmethyl)-1,5-naphthyridin-3-amine]	25.1 to 158 nM
0.0398 to 0.316 nM	Fc1cc(F)c(-c2n[nH]cc2-c2ccc3ncc(NCCN4CCNCC4)cc3n2)cc1Cl [Compound 6-9, 6-[3-(5-chloro-2,4-difluoro-phenyl)-1H-pyrazol-4-yl]-N-(2-piperazin-1-ylethyl)-1,5-naphthyridin-3-amine]	25.1 to 158 nM
